Several values for one entry are separate records, joined by “and”; a condition that tells them apart may be missing. Identical values can stand only once. Inconclusive results and toxic doses are left out. Cut-off read from the data, not from the text of the source: active = T/C of 150% or more; inactive = T/C below 125%.
Tested on: L1210 leukemia ip in BDF1 mice, survival T/C
Experiment: NCI In Vivo Anticancer Drug Screen. Data for tumor model L1210 Leukemia (intraperitoneal) in B6D2F1 (BDF1) mice
Conditions: endpoint: mean survival time, higher = longer survival
Summary of the method: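 Tumor was transplanted into mice, which were then dosed with test compound or vehicle alone. Survival was recorded for each group, and the treated figure was expressed relative to the control figure.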

[1] = dose: 100.0 mg/kg/injection, schedule: Q01DX001 (ip), vehicle: saline
[2] = dose: 200.0 mg/kg/injection, schedule: Q01DX001 (ip), vehicle: saline
[3] = dose: 400.0 mg/kg/injection, schedule: Q01DX001 (ip), vehicle: saline
[4] = dose: 100.0 mg/kg/injection, schedule: Q01DX009 (ip), vehicle: saline
[5] = dose: 100.0 mg/kg/injection, schedule: Q04DX003 (ip), vehicle: saline with Tween-80
[6] = dose: 200.0 mg/kg/injection, schedule: Q01DX009 (ip), vehicle: saline
[7] = dose: 200.0 mg/kg/injection, schedule: Q04DX003 (ip), vehicle: saline with Tween-80
[8] = dose: 400.0 mg/kg/injection, schedule: Q01DX009 (ip), vehicle: saline
[9] = dose: 100.0 mg/kg/injection, schedule: Q01DX009 (ip), vehicle: Klucel (hydroxypropylcellulose) (HPC)
[10] = dose: 200.0 mg/kg/injection, schedule: Q01DX009 (ip), vehicle: Klucel (hydroxypropylcellulose) (HPC)
[11] = dose: 100.0 mg/kg/injection, schedule: Q01DX001 (ip), vehicle: carboxymethylcellulose (CMC)
[12] = dose: 200.0 mg/kg/injection, schedule: Q01DX001 (ip), vehicle: carboxymethylcellulose (CMC)
[13] = dose: 400.0 mg/kg/injection, schedule: Q01DX001 (ip), vehicle: carboxymethylcellulose (CMC)
[14] = dose: 100.0 mg/kg/injection, schedule: Q04DX003 (ip), vehicle: Klucel (hydroxypropylcellulose) (HPC)
[15] = dose: 200.0 mg/kg/injection, schedule: Q04DX003 (ip), vehicle: Klucel (hydroxypropylcellulose) (HPC)
[16] = dose: 400.0 mg/kg/injection, schedule: Q04DX003 (ip), vehicle: Klucel (hydroxypropylcellulose) (HPC)
[17] = dose: 12.5 mg/kg/injection, schedule: Q04DX003 (ip), vehicle: saline with Tween-80
[18] = dose: 25.0 mg/kg/injection, schedule: Q01DX009 (ip), vehicle: saline with Tween-80
[19] = dose: 25.0 mg/kg/injection, schedule: Q04DX003 (ip), vehicle: saline with Tween-80

Measured: T/C

CCOC(=O)C1CN(c2ccccc2)C(=O)C1=O (stereo unspecified)
inactive: dose: 50.0 mg/kg/injection, schedule: Q01DX001 (ip), vehicle: saline 104 % of control | [1] 98 % of control | [2] 96 % of control | [3] 98 % of control

O=C(O)CC/C(=N/OCc1cc2c(cc1Cl)OCO2)C(=O)O
inactive: dose: 100.0 mg/kg/injection, schedule: Q04DX003 (ip), vehicle: saline sonified 108 % of control | dose: 200.0 mg/kg/injection, schedule: Q04DX003 (ip), vehicle: saline sonified 93 % of control | dose: 400.0 mg/kg/injection, schedule: Q04DX003 (ip), vehicle: saline sonified 91 % of control

COc1ccc(/C=N/NC(N)=S)cc1
inactive: dose: 32.0 mg/kg/injection, schedule: Q01DX009 (ip), vehicle: saline 101 % of control and 92 % of control | dose: 32.0 mg/kg/injection, schedule: Q01DX010 (ip), vehicle: saline 97 % of control and 91 % of control | dose: 64.0 mg/kg/injection, schedule: Q01DX009 (ip), vehicle: saline 98 % of control and 100 % of control | dose: 64.0 mg/kg/injection, schedule: Q01DX010 (ip), vehicle: saline 96 % of control and 91 % of control | dose: 64.0 mg/kg/injection, schedule: Q01DX010 (iv), vehicle: saline 92 % of control | [4] 104 % of control | [5] 95 % of control | dose: 128.0 mg/kg/injection, schedule: Q01DX009 (ip), vehicle: saline 97 % of control and 102 % of control | dose: 128.0 mg/kg/injection, schedule: Q01DX010 (ip), vehicle: saline 94 % of control and 95 % of control | dose: 128.0 mg/kg/injection, schedule: Q01DX010 (iv), vehicle: saline 92 % of control | [2] 94 % of control | dose: 200.0 mg/kg/injection, schedule: Q01DX009 (ip), vehicle: acetone 95 % of control | [6] 100 % of control | [7] 95 % of control | dose: 256.0 mg/kg/injection, schedule: Q01DX009 (ip), vehicle: saline 101 % of control and 109 % of control | dose: 256.0 mg/kg/injection, schedule: Q01DX010 (ip), vehicle: saline 97 % of control and 90 % of control | dose: 256.0 mg/kg/injection, schedule: Q01DX010 (iv), vehicle: saline 102 % of control | [3] 100 % of control | dose: 400.0 mg/kg/injection, schedule: Q01DX009 (ip), vehicle: acetone 88 % of control | [8] 98 % of control | dose: 400.0 mg/kg/injection, schedule: Q04DX003 (ip), vehicle: saline with Tween-80 102 % of control | dose: 800.0 mg/kg/injection, schedule: Q01DX001 (ip), vehicle: saline 96 % of control

CCP(=O)(CC(=O)O)c1ccccc1 (stereo unspecified)
inactive: dose: 100.0 mg/kg/injection, schedule: Q04DX002 (ip), vehicle: saline with Tween-80 109 % of control | dose: 200.0 mg/kg/injection, schedule: Q04DX002 (ip), vehicle: saline with Tween-80 103 % of control | dose: 400.0 mg/kg/injection, schedule: Q04DX002 (ip), vehicle: saline with Tween-80 103 % of control

CCCCCCC(=O)N(CC)CC
inactive: dose: 100.0 mg/kg/injection, schedule: Q04DX002 (ip), vehicle: saline 94 % of control | dose: 200.0 mg/kg/injection, schedule: Q04DX002 (ip), vehicle: saline 98 % of control | dose: 400.0 mg/kg/injection, schedule: Q04DX002 (ip), vehicle: saline 91 % of control

Nc1nc(-c2ccc3c(c2)Sc2ccccc2O3)cs1
inactive: dose: 75.0 mg/kg/injection, schedule: Q04DX003 (ip), vehicle: saline 93 % of control | dose: 150.0 mg/kg/injection, schedule: Q04DX003 (ip), vehicle: saline 91 % of control | dose: 300.0 mg/kg/injection, schedule: Q04DX003 (ip), vehicle: saline 91 % of control

Cc1cccc(NC(=O)c2cccc(F)c2)c1C
inactive: [9] 105 % of control | [10] 100 % of control | dose: 400.0 mg/kg/injection, schedule: Q01DX009 (ip), vehicle: Klucel (hydroxypropylcellulose) (HPC) 94 % of control

O=C1C=C(N2CC2)C(=O)C=C1N1CC1
inactive: dose: 0.62 mg/kg/injection, schedule: Q01DX001 (ip), vehicle: other 105 % of control | dose: 1.25 mg/kg/injection, schedule: Q01DX001 (ip), vehicle: other 117 % of control | dose: 2.5 mg/kg/injection, schedule: Q01DX001 (ip), vehicle: other 107 % of control

CCOC(=O)N1C2CC=CCC1C1(c3ccccc3)OC2(c2ccccc2)c2ccccc21
inactive: dose: 100.0 mg/kg/injection, schedule: Q04DX002 (ip), vehicle: DMSO 96 % of control

CN(CC(=O)C(C#N)c1ccccc1)c1ccccc1 (stereo unspecified)
inactive: dose: 50.0 mg/kg/injection, schedule: Q01DX001 (ip), vehicle: carboxymethylcellulose (CMC) 98 % of control | [11] 93 % of control | [12] 91 % of control | [13] 98 % of control

Nc1nc(=O)n(CCCSc2ccc([N+](=O)[O-])cc2)cc1-c1ccc(Cl)c(Cl)c1
inactive: [14] 90 % of control | [15] 90 % of control | [16] 88 % of control

O=[N+]([O-])C1C(O)CCCC1O (stereo unspecified)
inactive: [1] 102 % of control | [2] 102 % of control | [3] 105 % of control

C1CC2CCC[N]3C2C(C1)[O][Pb]31[O]C2CCCC3CCC[N]1C32 (stereo unspecified)
inactive: dose: 30.0 mg/kg/injection, schedule: Q01DX015 (ip), vehicle: carboxymethylcellulose (CMC) 91 % of control | dose: 60.0 mg/kg/injection, schedule: Q01DX015 (ip), vehicle: carboxymethylcellulose (CMC) 90 % of control | [9] 97 % of control | [14] 95 % of control | [10] 92 % of control | [15] 94 % of control | [16] 98 % of control

C1CCC2C(C1)CCC1OC12 (stereo unspecified)
inactive: [4] 112 % of control | [6] 102 % of control | [8] 107 % of control

O=C(Nc1nc(Cl)nc(Cl)n1)N1CCOCC1
inactive: [17] 95 % of control | [18] 113 % of control | [19] 101 % of control

CC(=O)CC(=O)N(c1ccccn1)c1ccccn1
inactive: [11] 104 % of control | [12] 98 % of control | [13] 98 % of control

CC(=O)OC(OC(C)=O)c1cccc2ccccc12
inactive: dose: 222.0 mg/kg/injection, schedule: Q01DX Z (ip), vehicle: saline 91 % of control | dose: 333.0 mg/kg/injection, schedule: Q01DX Z (ip), vehicle: saline 98 % of control | dose: 500.0 mg/kg/injection, schedule: Q01DX Z (ip), vehicle: saline 109 % of control

C[S+](C)CCCNC(=O)c1csc(CCNC(=O)c2ccccc2)n1
inactive: dose: 12.5 mg/kg/injection, schedule: Q01DX009 (ip), vehicle: saline with Tween-80 100 % of control | [17] 103 % of control | [18] 97 % of control | [19] 101 % of control | dose: 50.0 mg/kg/injection, schedule: Q01DX009 (ip), vehicle: saline with Tween-80 101 % of control | dose: 50.0 mg/kg/injection, schedule: Q04DX003 (ip), vehicle: saline with Tween-80 97 % of control

c1coc(-c2cnc3ccccc3n2)c1
inactive: dose: 75.0 mg/kg/injection, schedule: Q01DX001 (ip), vehicle: carboxymethylcellulose (CMC) 109 % of control | dose: 150.0 mg/kg/injection, schedule: Q01DX001 (ip), vehicle: carboxymethylcellulose (CMC) 91 % of control

COc1ccccc1C(=O)C=C(C(F)(F)F)C(F)(F)F
inactive: [5] 95 % of control | [7] 97 % of control

CC(C)(C)C(=O)C=C(C(F)(F)F)C(F)(F)F
inactive: dose: 6.25 mg/kg/injection, schedule: Q01DX009 (ip), vehicle: saline 106 % of control | dose: 6.25 mg/kg/injection, schedule: Q04DX003 (ip), vehicle: saline 100 % of control | dose: 12.5 mg/kg/injection, schedule: Q01DX009 (ip), vehicle: saline 106 % of control | dose: 12.5 mg/kg/injection, schedule: Q04DX003 (ip), vehicle: saline 97 % of control | dose: 25.0 mg/kg/injection, schedule: Q01DX009 (ip), vehicle: saline 108 % of control | dose: 25.0 mg/kg/injection, schedule: Q04DX003 (ip), vehicle: saline 105 % of control | dose: 50.0 mg/kg/injection, schedule: Q04DX003 (ip), vehicle: saline 96 % of control and 105 % of control
